Source: the OligoGym collection
HELM strings list units from the 5' end as sugar, base in round brackets, then linkage (d deoxyribose, r ribose, m 2'-O-methyl, p phosphodiester). Strings are as the collection lists them; they lack the last nucleoside at the 3' end of the tested compound. [moe] = 2'-O-(2-methoxyethyl) (MOE); [sp] = phosphorothioate linkage; [m5C] = 5-methylcytosine

The substances below were run against HTT (assay: mouse, dose not given). Details: ASO.

Point of comparison: “RNA1{[moe]([m5C])[sp].[moe](T)p.[moe](A)p.[moe](G)p.[moe](A)[sp].d(G)[sp].d(G)[sp].d(T)[sp].d([m5C])[sp].d(A)[sp].d(T)[sp].d([m5C])[sp].d(T)[sp].d(T)[sp].d([m5C])[sp].[moe](G)p.[moe](G)p.[moe](T)[sp].[moe]([m5C])}$$$$ (last 3' nucleoside missing)”, 3 h FOB score 2 score 0-7. Against it:
- RNA1{[moe]([m5C])[sp].[moe](A)p.[moe]([m5C])p.[moe](T)p.[moe]([m5C])[sp].d(A)[sp].d(T)[sp].d(T)[sp].d(T)[sp].d([m5C])[sp].d([m5C])[sp].d(A)[sp].d([m5C])[sp].d([m5C])[sp].d(T)[sp].[moe](T)p.[moe]([m5C])p.[moe](A)[sp].[moe](G)}$$$$ (last 3' nucleoside missing) — lower, 0 score 0-7
- RNA1{[moe]([m5C])[sp].[moe](T)p.[moe](T)p.[moe](G)p.[moe](G)p.[moe](T)p.d(T)[sp].d(A)[sp].d(G)[sp].d(T)[sp].d(T)[sp].d(T)[sp].d(T)[sp].d([m5C])[sp].d([m5C])[sp].d(T)[sp].[moe](T)p.[moe](T)[sp].[moe](T)}$$$$ (last 3' nucleoside missing) — higher, 4.25 score 0-7
